Series [1] concerns extensor digitorum longus muscle. To be noted: after three weeks.
Procedure: In addition, a 0.5% MC solution or physiological saline was orally administered to a control group.
Then, the concentration of a muscle toxicity-associated enzyme, such as creatine kinase (CK) and lactate dehydrogenase (LDH) in blood was measured and a histological analysis was performed.
The rats were anesthetized with ether after three weeks of starting the administration for each experimental group; an extensor digitorum longus muscle was removed; fixed in paraffin; and then made into 5 μm coronal sections. The paraffin was removed with xylene, hydrophilicized with alcohol, and then stained with hematoxylin and eosin to observe the tissue through an optical microscope (Olympus Optical, Co., Japan).
Series [2] can be described thus: Frequency of muscular side effects according to dosage (Zocor Tablet Label). It counts as in vivo. Conditions: dosage of 80 mg compared to 20 mg. From the text: In addition, it is reported that the side effects are increased when the concentration of the statin-based drug in blood is increased in the most cases. […] 16, 2011].
The conditions of series [3]: after oral administration; cited from earlier work.

Like-named read-outs stand apart in the source and are kept apart here.

Here are results for 3 molecules from patent US20130158084A1, “Pharmaceutical Composition Comprising Losartin For Treating or Preventing Statin BasedGrug-Induced Muscle Toxicity” (HANALL BIOPHARMA CO., LTD., priority 2011, published 2013).

For the molecule `CC(C)c1c(C(=O)Nc2ccccc2)c(-c2ccccc2)c(-c2ccc(F)cc2)n1CC[C@@H](O)C[C@@H](O)CC(=O)O` [Atorvastatin, atorvastatin], the entries for the “Degree of Muscle Tissue Damage, Scores (0: Normal, +1: internal nuclei, +2: Myositis, +3: internal nuclei + myositis)” value in series [1] (40 mg/kg atorvastatin alone) and in series [1] (80 mg/kg atorvastatin alone) were 1.0 ± 0.0 and 1.8 ± 0.2, respectively.
For `CCC(C)(C)C(=O)O[C@H]1C[C@@H](C)C=C2C=C[C@H](C)[C@H](CC[C@@H]3C[C@@H](O)CC(=O)O3)[C@H]21` [simvastatin], the “Increase in frequency of muscular side effects, 80 mg compared to 20 mg” value in series [2] is “at least 20 times”.
As to `CCCCc1nc(Cl)c(CO)n1Cc1ccc(-c2ccccc2-c2nn[nH]n2)cc1` [Losartan, 2-butyl-4 chloro-1-[2-(1H-tetrazol-5-yl)biphenyl-4-ylphenyl]-1H-imidazol-5-methanol], in series [3], the “Time to maximum concentration in the blood (losartan molecules)” value is on record as “within one hour”.
